According to patent US20140323300A1, “HERBICIDAL COMPOUNDS” (SYNGENTA LIMITED, priority 2011, published 2014):

Columns and labels:
Type in all cases: in vivo
[1] = tested on: Amaranthus retoflexus (AMARE); test: Post-emergence glasshouse herbicide test; conditions: post-emergence (sprayed after 8 days cultivation), 1000 g/h, evaluated after 13 days, five point scale
Description: (§1) Seeds of a variety of test species are sown in standard soil in pots (Alopecurus myosuroides (ALOMY), Setaria faberi (SETFA), Echinochloa crus-galli (ECHCG), Solanum nigrum (SOLNI), Amaranthus retoflexus (AMARE), Ipomoea hederacea (IPOHE)). After cultivation for one day (pre-emergence) or after 8 days cultivation (post-emergence) under controlled conditions in a glasshouse (at 24/16° C., day/night; 14 hours light; 65% humidity), the plants are sprayed with an aqueous spray solution derived from the formulation of the technical active ingredient in acetone/water (50:50) solution containing 0.5% Tween 20 (polyoxyethelyene sorbitan monolaurate, CAS RN 9005-64-5). Compounds are applied at 1000 g/h. The test plants are then grown in a glasshouse under controlled conditions in a glasshouse (at 24/16° C., day/night; 14 hours light; 65% humidity) and watered twice daily. After 13 days for pre and post-emergence, the test is evaluated for the percentage damage caused to the plant. The biological activities are shown in the following table on a five point scale (5=80-100%; 4=60-79%; 3=40-59%; 2=20-39%; 1=0-19%).

[2] = tested on: Ipomoea hederacea (IPOHE); test: Post-emergence glasshouse herbicide test; conditions: post-emergence (sprayed after 8 days cultivation), 1000 g/h, evaluated after 13 days, five point scale
Description: as §1

[3] = tested on: Echinochloa crus-galli (ECHCG); test: Post-emergence glasshouse herbicide test; conditions: post-emergence (sprayed after 8 days cultivation), 1000 g/h, evaluated after 13 days, five point scale
Description: as §1

Solanum nigrum (SOLNI) [4] = test: Post-emergence glasshouse herbicide test; conditions: post-emergence (sprayed after 8 days cultivation), 1000 g/h, evaluated after 13 days, five point scale
Description: as §1

[5] = tested on: Alopecurus myosuroides (ALOMY); test: Post-emergence glasshouse herbicide test; conditions: post-emergence (sprayed after 8 days cultivation), 1000 g/h, evaluated after 13 days, five point scale
Description: as §1

Setaria faberi (SETFA) [6] = test: Post-emergence glasshouse herbicide test; conditions: post-emergence (sprayed after 8 days cultivation), 1000 g/h, evaluated after 13 days, five point scale
Description: as §1

[7] = tested on: Amaranthus retoflexus (AMARE); test: Pre-emergence glasshouse herbicide test; conditions: pre-emergence (sprayed after one day cultivation), 1000 g/h, evaluated after 13 days, five point scale
Description: as §1

[8] = tested on: Ipomoea hederacea (IPOHE); test: Pre-emergence glasshouse herbicide test; conditions: pre-emergence (sprayed after one day cultivation), 1000 g/h, evaluated after 13 days, five point scale
Description: as §1

[9] = tested on: Echinochloa crus-galli (ECHCG); test: Pre-emergence glasshouse herbicide test; conditions: pre-emergence (sprayed after one day cultivation), 1000 g/h, evaluated after 13 days, five point scale
Description: as §1

Solanum nigrum (SOLNI) [10] = test: Pre-emergence glasshouse herbicide test; conditions: pre-emergence (sprayed after one day cultivation), 1000 g/h, evaluated after 13 days, five point scale
Description: as §1

[11] = tested on: Alopecurus myosuroides (ALOMY); test: Pre-emergence glasshouse herbicide test; conditions: pre-emergence (sprayed after one day cultivation), 1000 g/h, evaluated after 13 days, five point scale
Description: as §1

Setaria faberi (SETFA) [12] = test: Pre-emergence glasshouse herbicide test; conditions: pre-emergence (sprayed after one day cultivation), 1000 g/h, evaluated after 13 days, five point scale
Description: as §1

SMILES	percentage damage caused to the plant, POST Application AMARE [1]	percentage damage caused to the plant, POST Application IPOHE [2]	percentage damage caused to the plant, POST Application ECHCG [3]	percentage damage caused to the plant, POST Application SOLNI (Solanum nigrum (SOLNI) [4])	percentage damage caused to the plant, POST Application ALOMY [5]	percentage damage caused to the plant, POST Application SETFA (Setaria faberi (SETFA) [6])	percentage damage caused to the plant, PRE Application AMARE [7]	percentage damage caused to the plant, PRE Application IPOHE [8]	percentage damage caused to the plant, PRE Application ECHCG [9]	percentage damage caused to the plant, PRE Application SOLNI (Solanum nigrum (SOLNI) [10])	percentage damage caused to the plant, PRE Application ALOMY [11]	percentage damage caused to the plant, PRE Application SETFA (Setaria faberi (SETFA) [12])
C=Cc1cnn(-c2ccc(S(C)(=O)=O)c(C3=NOCC3)c2C)c(=O)c1O [Compound 1.006]	5 (5=80-100%)	5 (5=80-100%)	5 (5=80-100%)	5 (5=80-100%)	4 (4=60-79%)	5 (5=80-100%)	5 (5=80-100%)	4 (4=60-79%)	5 (5=80-100%)	5 (5=80-100%)	1 (1=0-19%)	4 (4=60-79%)
C=C(C)c1cnn(-c2ccc(S(C)(=O)=O)c(C3=NOCC3)c2C)c(=O)c1O [Compound 1.007]	5 (5=80-100%)	5 (5=80-100%)	5 (5=80-100%)	5 (5=80-100%)	5 (5=80-100%)	5 (5=80-100%)	5 (5=80-100%)	5 (5=80-100%)	5 (5=80-100%)	4 (4=60-79%)	3 (3=40-59%)	3 (3=40-59%)
Cc1c(-n2nccc(O)c2=O)ccc(S(C)(=O)=O)c1C1=NOCC1 [Compound 1.008]	5 (5=80-100%)	5 (5=80-100%)	5 (5=80-100%)	5 (5=80-100%)	5 (5=80-100%)	5 (5=80-100%)	5 (5=80-100%)	5 (5=80-100%)	5 (5=80-100%)	5 (5=80-100%)	2 (2=20-39%)	5 (5=80-100%)
Cc1c(-n2ncc(C#N)c(O)c2=O)ccc(S(C)(=O)=O)c1C1=NOCC1 [Compound 1.009]	5 (5=80-100%)	5 (5=80-100%)	5 (5=80-100%)	5 (5=80-100%)	1 (1=0-19%)	5 (5=80-100%)	5 (5=80-100%)	4 (4=60-79%)	5 (5=80-100%)	4 (4=60-79%)	1 (1=0-19%)	4 (4=60-79%)
Cc1c(-n2ncc(C(C)C)c(O)c2=O)ccc(S(C)(=O)=O)c1C1=NOCC1 [Compound 1.010]	5 (5=80-100%)	5 (5=80-100%)	5 (5=80-100%)	5 (5=80-100%)	5 (5=80-100%)	5 (5=80-100%)	5 (5=80-100%)	1 (1=0-19%)	3 (3=40-59%)	1 (1=0-19%)	3 (3=40-59%)	2 (2=20-39%)
Cc1c(-n2ncc(S(C)(=O)=O)c(O)c2=O)ccc(S(C)(=O)=O)c1C1=NOCC1 [Compound 1.011, 2-[3-(4,5-dihydroisoxazol-3-yl)-2-methyl-4-methylsulfonyl-phenyl]-4-hydroxy-5-methylsulfonyl-pyridazin-3-one]	5 (5=80-100%)	5 (5=80-100%)	5 (5=80-100%)	5 (5=80-100%)	5 (5=80-100%)	5 (5=80-100%)	5 (5=80-100%)	5 (5=80-100%)	5 (5=80-100%)	5 (5=80-100%)	5 (5=80-100%)	5 (5=80-100%)
Cc1c(-n2ncc(Br)c(O)c2=O)ccc(S(C)(=O)=O)c1C1=NOCC1 [Compound 1.013]	5 (5=80-100%)	5 (5=80-100%)	5 (5=80-100%)	5 (5=80-100%)	5 (5=80-100%)	5 (5=80-100%)	5 (5=80-100%)	4 (4=60-79%)	5 (5=80-100%)	5 (5=80-100%)	4 (4=60-79%)	5 (5=80-100%)
COc1cnn(-c2ccc(C(F)(F)F)cc2C(F)(F)F)c(=O)c1O [Compound 1.014]	5 (5=80-100%)	3 (3=40-59%)	1 (1=0-19%)	5 (5=80-100%)	1 (1=0-19%)	4 (4=60-79%)	1 (1=0-19%)	1 (1=0-19%)	1 (1=0-19%)	1 (1=0-19%)	1 (1=0-19%)	1 (1=0-19%)
O=c1c(O)c(Cl)cnn1-c1ccc(C(F)(F)F)cc1C(F)(F)F [Compound 1.015]	5 (5=80-100%)	5 (5=80-100%)	5 (5=80-100%)	5 (5=80-100%)	5 (5=80-100%)	5 (5=80-100%)	5 (5=80-100%)	4 (4=60-79%)	2 (2=20-39%)	5 (5=80-100%)	1 (1=0-19%)	1 (1=0-19%)
Cc1cnn(-c2ccc(S(C)(=O)=O)c(C3=NOCC3)c2C)c(=O)c1O [Compound 1.016, 2-[3-(4,5-dihydroisoxazol-3-yl)-2-methyl-4-methylsulfonyl-phenyl]-4-hydroxy-5-methyl-pyridazin-3-one]	5 (5=80-100%)	5 (5=80-100%)	5 (5=80-100%)	5 (5=80-100%)	5 (5=80-100%)	5 (5=80-100%)	5 (5=80-100%)	4 (4=60-79%)	5 (5=80-100%)	5 (5=80-100%)	5 (5=80-100%)	5 (5=80-100%)
